Literature values in patent publication US9775789B2, “Topical liposome compositions containing phenolic anti-inflammatory agents and their methods of preparation” (D& J ROSEE INC., priority 2012, dated 2017).

Assays:
[1] = test system: human skin
[2] = in vitro; superoxide anion and hydroxyl radicals
[3] = test system: tumor; conditions: topical application and UV radiation versus controls
[4] = test system: keratinocytes; conditions: 6-week application under occlusion
[5] = test system: cultured keratinocytes; conditions: in vitro
[6] = test system: cultured squamous carcinoma cells; conditions: in vitro
[7] = test system: keratinocytes; conditions: applied during 48 hours, then simulated solar radiation (2 MED); skin biopsy
[8] = test system: nuclear factor kappa beta (NF-κB) in normal human epidermal keratinocytes (NHEK); conditions: pretreatment of keratinocytes before UVB exposure
[9] = test system: MRSA; conditions: all 53 MRSA clinical isolates
[10] = test system: MRSA; conditions: time-kill study
[11] = test system: T. rubrum
[12] = test system: TNF-α and INF-γ; conditions: versus control; SEB intraperitoneally
[13] = test system: atopic dermatitis (AD) type skin lesions; conditions: daily topical application after allergen extract; versus vehicle

Structure (SMILES): O=C(O[C@@H]1Cc2c(O)cc(O)cc2O[C@@H]1c1cc(O)c(O)c(O)c1)c1cc(O)c(O)c(O)c1 [EGCG, epigallocatechin gallate]
- UV-induced infiltration of inflammatory leukocytes into the skin ([1]; EGCG pretreatment): inhibited
- UV-induced production of hydrogen peroxide, nitric oxide and lipid peroxide in both epidermis and dermis ([1]; topical application before a single UV exposure (4× MED), punch biopsies): markedly decreased
- ROS scavenging activity [2]: superior to other tea catechins
- tumor incidence and size [3]: significant reductions
- epidermal thickness [4]: significant increase
- proliferation of keratinocytes ([4]; versus vehicle-treated samples): significantly stimulated
- effect on cultured keratinocytes [5]: dose-dependent stimulatory effect
- action against cultured squamous carcinoma cells (apoptosis) [6]: inhibitory action
- greater increase in keratinocyte cell numbers versus vehicle-treated [7]: 4 fold
- UVB-induced activation of NFκB [8]: significant dose- and time-dependent inhibition
- minimal inhibitory concentration (MIC) [9]: 32 to 128 µg/mL
- bactericidal concentration ([10]; one isolate): 6 times the MIC
- bacteriostatic concentration ([10]; one isolate): 1-2 times the MIC
- bactericidal concentration, aqueous solution ([10]; equivalent of 6 times the MIC): ~0.04%
- susceptibility of T. rubrum compared with reference antifungals [11]: more susceptible than to flucytosine and similar to fluconazole
- MIC ([11]; 11 clinical isolates of T. rubrum): 1-16 μg per mL
- serum levels of TNF-α and INF-γ [12]: significantly reduced
- clinical signs (erythema, edema, scaling and excoriation) [13]: significantly lessened
- ear swelling [13]: significantly reduced
